Results as given in BindingDB's records for doi:10.1021/acs.jmedchem.8b01906 (Siteone Therapeutics, 2019).

Assay: Binding affinity to human recombinant Nav1.7 by radioligand binding assay

Row | SMILES | Kd [nM]
1 | Cc1nn([C@@H]2CCN([C@H](C)c3cc(Cl)cc(Cl)c3)C2)c2cc(F)c(C(=O)NS(=O)(=O)C3CC3)cc12 | 22
2 | CS(=O)(=O)NC(=O)c1cc(C2CC2)c(OCC2CCN(Cc3cc(C(F)(F)F)ccc3Cl)CC2)cc1F [US9546164, 580] | 3.5
